Like-named read-outs stand apart in the source and are kept apart here.
Biological target: 11β-HSD1 (Homo sapiens, UniProt P28845)
Experiment: biochemical
Details: for IC50: IC50 Range, Biological Test Example 1, microsomes from CHO cells overexpressing human 11β-HSD1; for inhibition at 0.1111 µM: read-out: Average % inhibition at 111.1 nM, Biological Test Example 1, 111.1 nM compound
[1] = read-out: Average % inhibition at 100 nM, Biological Test Example 1, 100 nM compound
[2] = read-out: Average % inhibition at 100 nM, Biological Test Example 1, 100 nM

Sequence of 11β-HSD1 (P28845 whole entry): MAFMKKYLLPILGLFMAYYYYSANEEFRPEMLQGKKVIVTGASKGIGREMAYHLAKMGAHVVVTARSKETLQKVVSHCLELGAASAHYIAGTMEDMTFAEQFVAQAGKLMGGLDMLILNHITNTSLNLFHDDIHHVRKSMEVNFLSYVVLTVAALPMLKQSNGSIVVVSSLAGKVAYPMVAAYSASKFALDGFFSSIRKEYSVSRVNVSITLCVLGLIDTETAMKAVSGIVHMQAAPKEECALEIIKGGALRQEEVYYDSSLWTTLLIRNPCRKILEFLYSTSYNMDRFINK

Row | IC50 | inhibition at 0.1111 µM | inhibition at 0.1 µM [1] | inhibition at 0.1 µM [2] | Compound | inhibition at 0.1 µM (read-out: Average % inhibition at 100 nM)
1 | 100 to 1000 nM | 16.2% | – | – | C[C@@H](c1cccc(OCC(=O)N2CCNCC2)c1)N1CCC(C)(c2ccccc2)OC1=O (mixture of isomers) [EXAMPLE 94, (R/S)-6-methyl-3-((S)-1-(3-(2-oxo-2-(piperazin-1-yl)ethoxy)phenyl)ethyl)-6-phenyl-1,3-oxazinan-2-one] | –
2 | 100 to 1000 nM | 45.3% | – | – | C[C@@H](c1cccc(OCC(C)(C)O)c1)N1CCC(C)(c2ccccc2)OC1=O (mixture of isomers) [EXAMPLE 93] | –
3 | < 100 nM | – | 92.8% | – | C[C@@H](c1ccc(-c2ccc(F)cc2F)cc1)N1CC[C@](CC(O)CO)(c2ccc(F)cc2)OC1=O (single isomer, unassigned) [EXAMPLE 52 Isomer 1] | –
4 | < 100 nM | 87.6% | – | – | C[C@@H](c1ccccc1)N1CCC(C)(c2ccccc2)OC1=O (single isomer, unassigned) [EXAMPLE 82 Isomer 1] | –
5 | 100 to 1000 nM | 50.3% | – | – | C[C@H](c1ccccc1)N1CCC(C)(c2ccccc2)OC1=O (single isomer, unassigned) [EXAMPLE 83 Isomer 1] | –
6 | < 100 nM | 74.8% | – | – | COc1cccc([C@H](C)N2CCC(C)(c3ccccc3)OC2=O)c1 (single isomer, unassigned) [EXAMPLE 84 Isomer 1] | –
7 | < 100 nM | 93.1% | – | – | COc1ccc([C@H](C)N2CCC(C)(c3ccccc3)OC2=O)cc1 (single isomer, unassigned) [EXAMPLE 85 Isomer 1] | –
8 | 100 to 1000 nM | 43.3% | – | – | Cc1ccccc1C1(C)CCN([C@@H](C)c2ccccc2)C(=O)O1 (single isomer, unassigned) [EXAMPLE 86 Isomer 1] | –
9 | 100 to 1000 nM | 13.3% | – | – | Cc1cccc(C2(C)CCN([C@@H](C)c3ccccc3)C(=O)O2)c1 (single isomer, unassigned) [EXAMPLE 87 Isomer 1] | –
10 | 100 to 1000 nM | 74.4% | – | – | Cc1ccc(C2(C)CCN([C@@H](C)c3ccccc3)C(=O)O2)cc1 (single isomer, unassigned) [EXAMPLE 88 Isomer 1] | –
11 | < 100 nM | 91% | – | – | C=CC[C@]1(c2ccc(F)cc2)CCN([C@@H](C)c2ccccc2)C(=O)O1 (single isomer, unassigned) [EXAMPLE 95 Isomer 1] | –
12 | 100 to 1000 nM | 52.8% | – | – | C[C@@H](c1ccccc1)N1CC[C@@](CCO)(c2ccc(F)cc2)OC1=O (single isomer, unassigned) [EXAMPLE 97 Isomer 1] | –
13 | < 100 nM | 88.2% | – | – | C[C@@H](c1ccccc1)N1CC[C@](CCO)(c2ccc(F)cc2)OC1=O (single isomer, unassigned) [EXAMPLE 97 Isomer 2] | –
14 | < 100 nM | – | 90.5% | – | C=CC[C@@]1(c2ccc(F)cc2)CCN([C@@H](C)c2ccc(Br)cc2)C(=O)O1 (single isomer, unassigned) [EXAMPLE 110 Isomer 1] | –
15 | < 100 nM | 95% | 96.6% | – | C=CC[C@]1(c2ccc(F)cc2)CCN([C@@H](C)c2ccc(Br)cc2)C(=O)O1 (single isomer, unassigned) [EXAMPLE 110 Isomer 2] | –
16 | < 100 nM | 90.9% | – | – | C=CC[C@@]1(c2ccc(F)cc2)CCN([C@@H](C)c2ccc(-c3ccc(F)cc3F)cc2)C(=O)O1 (single isomer, unassigned) [EXAMPLE 111 Isomer 1] | –
17 | < 100 nM | 58.9% | – | – | C=CC[C@]1(c2ccc(F)cc2)CCN([C@@H](C)c2ccc(-c3ccc(F)cc3F)cc2)C(=O)O1 (single isomer, unassigned) [EXAMPLE 111 Isomer 2] | –
18 | < 100 nM | 83.2% | – | – | C=CC1(c2ccc(F)cc2)CCN([C@@H](C)c2ccccc2)C(=O)O1 (single isomer, unassigned) [EXAMPLE 113 Isomer 1] | –
19 | < 100 nM | – | 92.2% | – | C=CCC1(c2ccc(F)cc2)CCN([C@@H](CC)c2ccc(Br)cc2)C(=O)O1 (single isomer, unassigned) [EXAMPLE 130 Isomer 1] | –
20 | < 100 nM | – | – | – | CC(O)C[C@]1(c2ccc(F)cc2)CCN([C@@H](C)c2ccc(-c3ccc(F)cc3F)cc2)C(=O)O1 (single isomer, unassigned) [EXAMPLE 137 Isomer 1] | –
21 | < 100 nM | 54.4% | – | – | CC[C@@H](c1ccc(Br)cc1)N1CCC(CCO)(c2ccc(F)cc2)OC1=O (single isomer, unassigned) [EXAMPLE 143 Isomer 1] | –
22 | < 100 nM | 90.6% | – | – | C[C@@H](c1ccc(Br)cc1)N1CC[C@](CC(O)CO)(c2ccc(F)cc2)OC1=O (single isomer, unassigned) [EXAMPLE 144 Isomer 1] | –
23 | < 100 nM | – | 97.4% | – | C=CCC1(c2cccs2)CCN([C@@H](C)c2ccc(Br)cc2)C(=O)O1 (single isomer, unassigned) [EXAMPLE 157 Isomer 1] | –

Row | IC50 | inhibition at 0.1111 µM | inhibition at 0.1 µM [1] | inhibition at 0.1 µM [2] | Compound | inhibition at 0.1 µM (read-out: Average % inhibition at 100 nM)
24 | < 100 nM | 93.5% | – | – | C=CCC1(c2cccs2)CCN([C@@H](C)c2ccc(-c3ccc(F)cc3)cc2)C(=O)O1 (single isomer, unassigned) [EXAMPLE 160 Isomer 1] | –
25 | < 100 nM | 66.8% | – | – | CC1CC(CCO)(c2ccc(F)cc2)OC(=O)N1[C@@H](C)c1ccc(Br)cc1 (single isomer, unassigned) [EXAMPLE 163 Isomer 1] | –
26 | < 100 nM | 79% | 73.7% | – | CC(O)C[C@@]1(c2cccs2)CCN([C@@H](C)c2ccc(-c3ccc(F)cc3)cc2)C(=O)O1 (single isomer, unassigned) [EXAMPLE 167 Isomer 1] | –
27 | < 100 nM | – | 97.2% | – | C[C@@H](c1ccc(-c2ccc(F)cc2)cc1)N1CC[C@](CC(O)CO)(c2ccccc2)OC1=O (single isomer, unassigned) [EXAMPLE 168 Isomer 1] | –
28 | < 100 nM | – | 96.7% | – | C[C@@H](c1ccc(-c2ccc(F)cc2F)cc1)N1CC[C@](CC(O)CO)(c2ccccc2)OC1=O (single isomer, unassigned) [EXAMPLE 173 Isomer 1] | –
29 | < 100 nM | – | 95.2% | – | C=CCC1(c2ccc(F)cc2)CCN([C@@H](C)c2ccc(C)cc2)C(=O)O1 (single isomer, unassigned) [EXAMPLE 189 Isomer 1] | –
30 | < 100 nM | – | – | – | C=CCC1(c2ccc(F)cc2)CCN([C@@H](C)c2ccc(OC)cc2)C(=O)O1 (single isomer, unassigned) [EXAMPLE 193 Isomer 1] | –
31 | < 100 nM | – | 101% | – | C=CCC1(c2ccc(F)cc2)CCN([C@@H](C)c2ccc(Cl)cc2)C(=O)O1 (single isomer, unassigned) [EXAMPLE 196 Isomer 1] | –
32 | < 100 nM | – | 90.4% | – | C[C@@H](C1CCCCC1)N1CC[C@](CC(O)CO)(c2ccc(F)cc2)OC1=O (single isomer, unassigned) [EXAMPLE 197 Isomer 1] | –
33 | < 100 nM | – | – | – | CC(C)C1(CCCO)CCN([C@@H](C)c2ccc(Br)cc2)C(=O)O1 (single isomer, unassigned) [EXAMPLE 200 Isomer 1] | –
34 | < 100 nM | – | 88.6% | – | CC(O)C[C@]1(c2ccc(F)cc2)CCN([C@@H](C)c2ccc(Cl)cc2)C(=O)O1 (single isomer, unassigned) [EXAMPLE 203 Isomer 1] | –
35 | < 100 nM | – | 90.3% | – | COc1ccc([C@H](C)N2CC[C@](CC(O)CO)(c3ccc(F)cc3)OC2=O)cc1 (single isomer, unassigned) [EXAMPLE 206 Isomer 1] | –
36 | < 100 nM | – | 96.8% | – | CC(C)C1(CCCO)CCN([C@@H](C)c2ccc(-c3ccc(F)cc3F)cc2)C(=O)O1 (single isomer, unassigned) [EXAMPLE 212 Isomer 1] | –
37 | < 100 nM | – | 97.4% | – | C[C@@H](c1ccc(-c2ccc(F)cc2)cc1)N1CC[C@](CCO)(c2cccs2)OC1=O (single isomer, unassigned) [EXAMPLE 218 Isomer 1] | –
38 | < 100 nM | – | 60.3% | – | C[C@@H](c1ccc(-c2ccc(F)cc2)cc1)N1CC[C@@](CCO)(c2cccs2)OC1=O (single isomer, unassigned) [EXAMPLE 218 Isomer 2] | –
39 | < 100 nM | – | 100% | – | CC(O)C[C@]1(c2ccccc2)CCN([C@@H](C)c2ccc(-c3ccc(F)cc3)cc2)C(=O)O1 (single isomer, unassigned) [EXAMPLE 224 Isomer 1] | –
40 | < 100 nM | – | – | – | C[C@@H](c1ccc(Br)cc1)N1CCC(CCCO)(c2ccc(F)cc2)OC1=O (single isomer, unassigned) [EXAMPLE 227 Isomer 1] | –
41 | < 100 nM | – | 91.5% | – | CC[C@@H](c1ccc(Br)cc1)N1CC[C@](CC(O)CO)(c2ccccc2)OC1=O (single isomer, unassigned) [EXAMPLE 239 Isomer 1] | –
42 | < 100 nM | – | 92.5% | – | CC[C@@H](c1ccc(Br)cc1)N1CC[C@](CC(O)CO)(c2ccc(F)cc2)OC1=O (single isomer, unassigned) [EXAMPLE 255 Isomer 1] | –
43 | < 100 nM | – | – | 98.4% | CC(O)C[C@]1(c2ccc(F)cc2)CCN([C@@H](C)c2ccc(Br)cc2)C(=O)O1 (single isomer, unassigned) [EXAMPLE 371 Isomer 1] | –
44 | < 100 nM | – | – | 94.7% | CC(O)CC[C@]1(c2ccc(F)cc2)CCN([C@@H](C)c2ccc(Cl)cc2)C(=O)O1 (single isomer, unassigned) [EXAMPLE 383 Isomer 1] | –
45 | < 100 nM | – | – | 92.8% | CC(O)C[C@]1(c2ccc(F)cc2)CCN([C@@H](C)c2ccc(C(F)(F)F)cc2)C(=O)O1 (single isomer, unassigned) [EXAMPLE 388 Isomer 1] | –

Row | Compound | IC50 | inhibition at 0.1111 µM | inhibition at 0.1 µM [1] | inhibition at 0.1 µM [2] | inhibition at 0.1 µM (read-out: Average % inhibition at 100 nM)
46 | C=CCCC1(c2ccc(F)cc2)CCN([C@@H](C)c2ccc(OC(F)F)cc2)C(=O)O1 (single isomer, unassigned) [EXAMPLE 323 Isomer 1] | < 100 nM | – | – | – | 85.9%
